Assay results: paper PMC2637266, “Quantification of gamma-secretase modulation differentiates inhibitor compound selectivity between two substrates Notch and amyloid precursor protein” (Molecular Brain, 2008)
Where two headings read alike, the source gives them in different places.

Experiments:
γ-secretase = conditions: read-out: IC50 for de novo Aβ and AICD generation in vitro; cited from earlier work
[1] = tested on: γ-secretase, NICD generation; design: method as in PMID 16236717; conditions: 50 nM; cited from earlier work
[2] = tested on: γ-secretase, AICD generation; design: method as in PMID 16236717; conditions: 100 nM; cited from earlier work
zebrafish embryos = tested on: zebrafish embryos; design: method as in PMID 12101103; conditions: treatment at late blastula stage; cited from earlier work
brain Aβ = tested on: brain Aβ; design: method as in PMID 11145990; conditions: transgenic mouse, human familial AD linked V717F APP; cited from earlier work
[3] = target: T1, γ-secretase cleavage of APP (Homo sapiens, UniProt P49768); experiment: Aβ ELISA from HEK293 cells transiently transfected with APP; assay type: cell-based
T1 construct: endogenous in cells; host or cells: HEK293 stably expressing Swedish mutant human APP695, transiently transfected with NotchΔE
Excerpt: (§1) Two cDNA constructs expressing chimeric APP and Notch were previously reported to generate chimeric "Notch-Aβ-like" (Nβ*) peptide. One construct has its transmembrane domain (TMD) replaced by the Notch TMD (APP-m-NOTCH) and the other with the juxtamembrane portion of the APP ectodomain (the α-secretase cleavage region) replaced by the corresponding sequence in Notch (APP-α-NOTCH). Taking advantage of different combinations of ELISA antibodies (see Methods), effects of cpd E on the generation of Aβ and Nβ* peptides from these chimeric APP-Notch substrates were quantified by ELISA.
(§2) Individual construct APP, APP-α-Notch or APP-m-Notch was transiently transfected into HEK293 cells. These chimeric protein expressing cells were treated with cpd E, and the levels of Aβ and Nβ* were measured by ELISA. […] Similar results were obtained when m-Notch was expressed in HEK293 cells. At least two magnitude of difference was observed, with EC50 for cpd E was […], compared to EC50 for Nβ* at ~1 nM (Fig. 3B).
(§3) Figure 3 Generation of Aβ and Nβ* from chimeric APP-Notch expressing cells. […] Levels of Nβ* in the media from cells expressing APP-α-Notch (dotted line) and levels of Aβ from APP expressing cells (solid line) were determined by ELISA. […] Levels of Aβ (solid line) and Nβ* (dotted line) were determined by ELISA. […]

[4] = target: T2, γ-secretase cleavage of chimeric APP-α-NOTCH (Homo sapiens, UniProt P49768); experiment: Nβ* ELISA from HEK293 cells expressing APP-α-Notch; assay type: cell-based
T2 construct: endogenous in cells; host or cells: HEK293 transiently transfected with APP-α-Notch
Excerpt: as §1, §2, §3

[5] = target: T3, γ-secretase cleavage of chimeric APP-m-NOTCH (Homo sapiens, UniProt P49768); experiment: Nβ* ELISA from HEK293 cells expressing APP-m-Notch; assay type: cell-based
T3 construct: endogenous in cells; host or cells: HEK293 transiently transfected with APP-m-Notch
Excerpt: as §1, §2, §3

NICD generation = tested on: NICD generation; design: method as in PMID 15319485; conditions: found as low as; read-out: IC50 for NICD generation in cultured cells; cited from earlier work
Aβ generation = tested on: Aβ generation; design: method as in PMID 10915801; conditions: found as low as; read-out: IC50 for Aβ generation in cultured cells; cited from earlier work
[6] = tested on: brain cortical γ-secretase; design: method as in PMID 15857627; conditions: guinea pig; cited from earlier work

Row | Compound | IC50 (γ-secretase) [nM] | inhibition of NICD generation in vitro [1] | inhibition of AICD generation in vitro [2] | zebrafish somitogenesis and neurogenesis (zebrafish embryos) | brain Aβ (brain Aβ) | EC50 ([3]; EC for inhibiting 50% of Aβ production, APP expressing HEK293, α-Notch experiment, Fig. 3A) [nM] | EC50 ([3]; HEK293, m-Notch experiment, Fig. 3B, read-out: EC50 for APP (Aβ)) [nM] | EC50 [4] [nM] | EC50 [5] [nM] | IC50 (NICD generation) [nM] | IC50 (Aβ generation) [nM] | brain cortical γ-secretase activity [6] | plasma, CSF and brain Aβ levels [6]
1 | C[C@H](NC(=O)Cc1cc(F)cc(F)c1)C(=O)N[C@H](C(=O)OC(C)(C)C)c1ccccc1 [DAPT, N-[N-(3,5-Difluorophenacetyl-L-alanyl)]-S-phenylglycine t-Butyl Ester] | 10 to 100 | partial inhibition | partial inhibition | caused defects in somitogenesis and neurogenesis | dose-dependent, acute decrease in brain Aβ |  |  |  |  |  |  |  | 
2 | C[C@H](NC(=O)Cc1cc(F)cc(F)c1)C(=O)N[C@H]1N=C(c2ccccc2)c2ccccc2N(C)C1=O [cpd E, (S,S)-2-[2-(3,5-Difluorophenyl)-acetylamino]-N-(1-methyl-2-oxo-5-phenyl-2,3-dihydro-1H-benzo [e] [1,4]diazepin-3-yl)-propionamide] |  |  |  |  |  | < 0.1 | ~0.03 | ~8 | ~1 | 1.7 | 0.3 | dose-dependent inhibition of brain cortical γ-secretase activity | decreases in plasma, CSF and brain Aβ levels
